The target in experiment [1] is T1, Toxoplasma gondii prolyl-tRNA synthetase (TgPRS) (Toxoplasma gondii, UniProt S8G8I1).
T1 construct: gene TGME49_219850; length 334–830
Put plainly: co-crystal structure with L-pro; aminoacylation inhibition (malachite green); thermal shift (ΔTm […] °C with L-Pro). The format is biochemical.

Another experiment deals with T2, Toxoplasma gondii WT.
T2 construct: RH
Put plainly: microbe, parasite or virus in culture. Set-up: species or system human foreskin fibroblasts (HFF); T. gondii RH NLuc tachyzoite growth in HFF monolayer, Nano-Glo luciferase luminescence. The settings on record: Fibroblast, 48 h. As for the experimental part:
Compounds were synthesized (HPLC purity > 95%) according to reported procedures. A confluent Human Foreskin Fibroblast (HFF) monolayer was infected with 2,000 tachyzoites of RH parasites expressing the NLuc luciferase (RH NLuc) for 2 h to allow parasite invasion. Each compound was added to the culture medium, and infected cells were incubated at 37° C for 48 h. To measure luminescence, the medium was replaced by 50 μL of PBS, and the luminescence assay was performed using Nano-Glo Luciferase Assay System according to the manufacturer’s instructions (Promega). After 3 min of incubation, the luminescence was measured using the CLARIOstar (BMG Labtech) plate reader. EC50 was determined using a non-linear regression analysis of normalized data assuming a sigmoidal dose-response. […] Statistical analyses were performed using a one-way ANOVA test with GraphPad software.  Fig 4 Activity of five compounds on PRS edited parasites. A-D) EC50 values for L95, L96, L97, and L36 were determined for wild-type (WT) and the engineered PRS mutant strains (T477A and T592S). Data are mean value ±SD from at least 2 independent biological replicates, each with 3 technical replicates. Associated dose-response curves are shown in S2C Fig. Higher EC50 values for the mutants confirm that PRS is the molecular target of all five compounds tested. The P-values were calculated using one-way ANOVA analysis and multiple-comparison post hoc tests. n.s., not significant. Associated dose-response curves are shown in S1 Fig. E) The EC50 (nM) values for the engineered PRS mutant strains (T477A and T592S) are shown in comparison with the TgPRS wild type. F) The catalytic cavity of TgPRS is shown with two inhibitors along with their electron densities–HFG (green) and L95 (red)–bound to the tRNA and L-pro binding sites and the ATP binding site respectively. The ribbon of PRS is in cyan whilst the resistance-conferring mutating residues T477 and T592 to L35 are shown in purple. (n.d.–not detected).

Experiment [2] concerns the target T1, Toxoplasma gondii prolyl-tRNA synthetase (TgPRS). Put plainly: co-crystal structure with L-pro; aminoacylation inhibition (malachite green); thermal shift (ΔTm […] °C with L-Pro). The format is biochemical. This is another data set of the same source.
Experiment [3] shares this target. Described as above. The format is biochemical. This is another data set of the same source.
Experiment [4] deals with T3, Homo sapiens prolyl-tRNA synthetase (HsPRS) (Homo sapiens, UniProt P07814).
T3 construct: gene EPRS1; length 1015–1506
T3 sequence (P07814 1015-1506): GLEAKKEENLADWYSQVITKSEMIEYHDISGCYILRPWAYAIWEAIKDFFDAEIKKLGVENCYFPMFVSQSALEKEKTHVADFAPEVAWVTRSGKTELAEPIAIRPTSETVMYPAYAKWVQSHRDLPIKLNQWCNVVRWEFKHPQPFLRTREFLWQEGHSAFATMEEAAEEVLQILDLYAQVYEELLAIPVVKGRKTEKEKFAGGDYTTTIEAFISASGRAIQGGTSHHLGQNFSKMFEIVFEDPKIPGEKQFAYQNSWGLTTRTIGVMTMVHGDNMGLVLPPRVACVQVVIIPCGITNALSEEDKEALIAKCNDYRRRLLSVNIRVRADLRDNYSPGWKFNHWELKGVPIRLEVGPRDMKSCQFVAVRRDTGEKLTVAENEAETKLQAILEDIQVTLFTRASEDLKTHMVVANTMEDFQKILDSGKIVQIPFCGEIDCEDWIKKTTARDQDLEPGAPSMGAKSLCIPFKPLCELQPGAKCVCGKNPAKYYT
Put plainly: co-crystal structure with L-pro; aminoacylation inhibition; thermal shift (ΔTm […] °C with L-pro). The format is binding.

Experiment [5] concerns the target T3, Homo sapiens prolyl-tRNA synthetase (HsPRS). The description is as above. The experiment is classed as binding. The source holds these as a separate data set.
Experiment [6] deals with T1, Toxoplasma gondii prolyl-tRNA synthetase (TgPRS). The experiment can be described thus: co-crystal structure with L-pro; aminoacylation inhibition (malachite green); thermal shift (ΔTm […] °C with L-Pro). The experiment is classed as biochemical. This is another data set of the same source.
The target is the same in experiment [7]. Described as above. The format is biochemical. The source holds these as a separate data set.
The target of experiment [8] is T3, Homo sapiens prolyl-tRNA synthetase (HsPRS). The experiment can be described thus: co-crystal structure with L-pro; aminoacylation inhibition; thermal shift (ΔTm […] °C with L-pro). The experiment is classed as binding. The source holds these as a separate data set.

The term IC50 denotes the concentration that gives 50% inhibition. What is called EC50 is the concentration at which the effect is half-maximal.

Read-outs that look alike come from different tables or passages of the source.

T1 sequence (S8G8I1 entry or part of it): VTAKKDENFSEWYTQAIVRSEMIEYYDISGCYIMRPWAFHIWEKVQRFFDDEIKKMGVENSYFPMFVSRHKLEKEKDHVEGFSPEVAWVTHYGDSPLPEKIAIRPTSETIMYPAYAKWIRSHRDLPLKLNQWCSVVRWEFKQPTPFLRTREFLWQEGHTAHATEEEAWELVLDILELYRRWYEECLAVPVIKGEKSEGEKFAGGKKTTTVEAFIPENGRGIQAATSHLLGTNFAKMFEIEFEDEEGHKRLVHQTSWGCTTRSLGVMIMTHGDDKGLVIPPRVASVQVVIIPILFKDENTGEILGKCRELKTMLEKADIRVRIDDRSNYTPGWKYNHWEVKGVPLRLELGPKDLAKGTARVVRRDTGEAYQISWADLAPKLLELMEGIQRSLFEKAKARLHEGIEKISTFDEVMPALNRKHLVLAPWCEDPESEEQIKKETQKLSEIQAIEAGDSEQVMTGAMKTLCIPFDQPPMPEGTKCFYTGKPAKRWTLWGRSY

In the case of `Cc1cc(N2CC[C@@](C#N)(C3(C)CC3)C2=O)cc(C(=O)NCc2cc(F)cc(-c3cnn(C)c3)c2)n1` [L35], the IC50 in experiment [1] is 9.2 nM. The EC50 in the experiment on Toxoplasma gondii WT (read-out: EC50 Treated-L35 (nM)) worked out at 31 ± 12 nM.
Consider `Cc1cc(N2CC[C@](C#N)(C3(C)CC3)C2=O)cc(C(=O)NCc2cc(F)cc(-c3cnn(C)c3)c2)n1` [L36], for which, in experiment [2], the concentration for half-maximal inhibition (IC50) came to 2410 nM. For the same molecule, the EC50 in the experiment with Toxoplasma gondii WT (read-out: EC50 Treated-L36 (nM)) came to 5800 ± 350 nM.
Consider `Cc1cc(N2CC[C@@](C#N)(C3CC3)C2=O)cc(NC(=O)Cc2ccccc2)n1` [L95], for which the IC50 in experiment [3] came to 140 nM. In addition, the “co-crystal structure with L-pro; aminoacylation inhibition; thermal shift (ΔTm 1)” value in [4] is “The complex structure of HsPRS with L95, L96, and L97 was determined”. Besides, the concentration giving a half-maximal response (EC50) in the experiment on Toxoplasma gondii WT (read-out: EC50 Treated-L95 (nM)) was found to be 277 ± 6 nM.
On to `COc1cncc(-c2cc(F)cc(CNC(=O)c3cc(N4CC[C@@](C#N)(C5CC5)C4=O)cc(C)n3)c2)c1` [L96], for which, in [5], the “co-crystal structure with L-pro; aminoacylation inhibition; thermal shift (ΔTm 2)” value is “The complex structure of HsPRS with L95, L96, and L97 was determined”. Further, the IC50 in [6] stood at 79.7 nM. For the same molecule, the EC50 in the experiment on Toxoplasma gondii WT (read-out: EC50 Treated-L96 (nM)) was found to be 106 ± 36 nM.
In the case of `Cc1cc(N2CCC(CO)(C3CC3)C2=O)cc(C(=O)NCc2cc(F)cc(-c3cnn(C)c3)c2)n1` (centres unmarked) [L97], the IC50 in experiment [7] turned out to be 50 nM. Also, the “co-crystal structure with L-pro; aminoacylation inhibition; thermal shift (ΔTm 1)” value in [8] was “The complex structure of HsPRS with L95, L96, and L97 was determined”. The EC50 in the experiment on Toxoplasma gondii WT (read-out: EC50 Treated-L97 (nM)) came to 544 ± 130 nM.
With `CCc1nc(N)nc(N)c1-c1ccc(Cl)cc1` [PYR, pyrimethamine], the concentration giving a half-maximal response (EC50) in the experiment with Toxoplasma gondii WT (read-out: EC50 Treated-PYR (nM)) stood at 174 ± 60 nM.

Source of the values: article PMC9974123, “Targeting prolyl-tRNA synthetase via a series of ATP-mimetics to accelerate drug discovery against toxoplasmosis” (PLOS Pathogens, 2023).
